Source: ChEMBL document CHEMBL1201862, “PubChem BioAssay data set” (2004)
Calls of active or inactive are those of the source.

Columns and labels:
[1] = target: Photoreceptor-specific nuclear receptor (Homo sapiens, UniProt Q9Y5X4); type: functional;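 also: potency for compounds that break the NR2E3 corepressor complex and count as activators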
[2] = target: Peroxisome proliferator-activated receptor gamma/Nuclear receptor corepressor 2 (Homo sapiens, UniProt P37231+Q9Y618); type: functional
[3] = target: Glyceraldehyde-3-phosphate dehydrogenase (Homo sapiens, UniProt P04406)
Bcl-2-like protein 10 = target: T1, Bcl-2-like protein 10 (Homo sapiens, UniProt Q9HD36); assay: Bcl-B/TR3 peptide binding disruption – biochemical, fluorescence polarization, FITC-TR3 peptide, selectivity assay for Bfl-1 inhibitor project, primary screen (AID 748);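 also: fluorescence polarization from a fluorescein-labelled TR3 peptide binding purified Bcl-B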
T1 sequence (Q9HD36 whole entry): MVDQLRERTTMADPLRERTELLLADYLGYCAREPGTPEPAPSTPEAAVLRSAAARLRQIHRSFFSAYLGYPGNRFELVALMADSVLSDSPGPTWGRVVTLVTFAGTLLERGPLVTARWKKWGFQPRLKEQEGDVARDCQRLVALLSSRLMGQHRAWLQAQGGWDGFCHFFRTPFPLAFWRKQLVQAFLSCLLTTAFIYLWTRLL

[4] = target: Sphingosine 1-phosphate receptor 2 (Homo sapiens, UniProt O95136); assay: Dose Response Cell Based Assay for Antagonists of the S1P2 Receptor. [Related pubchem assays: 856, 736 ]; type: functional
[5] = system: Streptococcus sp. 'group A'; assay: Streptococcus pyogenes SK(-)GAS viability under kanamycin – luminescence, BacTiterGlo, confirmation, counter-screen for streptokinase expression inhibitor project, dose response (AID 1900); type: functional, organism-based
[6] = target: Serine/threonine-protein phosphatase PP1-alpha catalytic subunit (Homo sapiens, UniProt P62136); assay: inhibition of protein phosphatase 1 activity – biochemical, fluorescence, dose response (AID 2403);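 also: phosphatase turnover of OMFP into fluorescent 3-O-methylfluorescein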
[7] = Trypanosoma cruzi growth suppression in host cells – NIH3T3 host cells, beta-gal luminescence, confirmation (AID 2044); type: functional, cell-based;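 also: intracellular parasites grown in NIH/3T3 mouse fibroblasts as host cells; luminescent beta-galactosidase reporter signal from transgenic T. cruzi replicating inside host cells; inhibitors lower the luminescence signal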
[8] = target: Serine/threonine-protein phosphatase (Homo sapiens, UniProt Q9BPW0); assay: Counterscreen for inhibitors of PP1: fluorescence-based biochemical high throughput dose response assay to identify inhibitors of Protein Phosphatase 5 (PP5). [Related pubchem assays: 2034 (Summary (PP5 inhibitors)), 1987 (PP5 inhibitors in singlate), 2235 (PP1 inhibitors in singlate)]
[9] = NIH3T3 cell viability loss – ATP luminescence, mouse fibroblasts, counter-screen, dose response (AID 2010); type: functional, cell-based;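 also: cells exposed to compound for about 90 hours before reading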
Streptococcus = assay: GAS UMAA2166 growth inhibition – luminescence, BacTiterGlo, counter-screen for streptokinase expression inhibitor project, dose response (AID 1915); type: functional, organism-based;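 also: potency for reduction of bacterial viability or growth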
Vero = assay: cells; type: functional; details: Chlorocebus sabaeus
[10] = reduction of Shn3 3'UTR-driven luciferase in osteoblasts – cell-based, Clone20 osteoblasts, firefly luciferase, cherry-picked, dose response (AID 624132); type: functional;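 also: firefly luciferase luminescence from reporter carrying the Shn3 3'UTR in osteoblasts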
[11] = loss of viability in HepG2 cells – cell-based, CellTiter-Glo, cherry-picked, cytotoxicity control for Shn3 inhibitor project, dose response (AID 624134); type: functional
[12] = non-specific 3'UTR reporter inhibition in Clone20-Shn3RL – cell-based, Renilla luciferase, cherry-picked, counter-screen for Shn3 inhibitor project, dose response (AID 624133); type: functional
[13] = blockers of HIV-1 envelope-mediated cell-cell fusion – cherry-pick, dose response (AID 652057); type: functional, cell-based
Galanin receptor type 3 = target: T2, Galanin receptor type 3 (Homo sapiens, UniProt O60755); assay: Fluorescence-based cell-based primary high throughput dose response assay to identify antagonists of the Galanin Receptor 3 (GalR3).; type: functional
T2 sequence (O60755 whole entry): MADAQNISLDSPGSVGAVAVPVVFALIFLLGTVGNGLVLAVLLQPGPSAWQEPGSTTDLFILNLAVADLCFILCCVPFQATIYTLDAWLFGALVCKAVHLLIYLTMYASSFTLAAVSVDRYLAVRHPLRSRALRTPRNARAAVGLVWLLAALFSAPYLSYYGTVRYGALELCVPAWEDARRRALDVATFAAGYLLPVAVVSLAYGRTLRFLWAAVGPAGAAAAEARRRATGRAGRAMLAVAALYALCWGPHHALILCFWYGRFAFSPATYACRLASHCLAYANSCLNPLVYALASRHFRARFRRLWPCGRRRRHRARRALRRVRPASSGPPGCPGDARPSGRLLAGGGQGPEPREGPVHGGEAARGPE

cells [14] = type: functional, cell-based; details: HEK-CNG
[15] = viability loss in CEM21 cells – cell-based, CellTiter-Glo luminescence, cherry-picked, cytotoxicity control for viral fusion inhibitor project, dose response (AID 652042); type: functional;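 also: potency for signal decrease meaning cytotoxicity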
[16] = blockers of HIV-1 ZM109 envelope-driven cell-cell fusion – HeLa effector, CEM target cells, luciferase, cherry-pick, dose response (AID 652058); type: functional, cell-based;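 also: luciferase signal from HIV-1 Env mediated cell-cell fusion of effector and target cells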
[17] = off-target signal loss in HeLa-CEM21 co-culture – HeLa F-luc CTL cells, cherry-picked, counter-screen for HIV-1 Env fusion inhibitor project, dose response (AID 652040); type: functional, cell-based;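 also: potency for signal decrease marking cytotoxic or nonspecific inhibition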
[18] = HIV-1 AD8 envelope cell-cell fusion blockers – cherry-pick, dose response (AID 652062); type: functional, cell-based;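 also: luciferase signal from cell-cell fusion driven by HIV-1 clade B AD8 Env; potency is for inhibitors of fusion seen as a drop in luminescence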
[19] = target: T3, COUP transcription factor 2 (Homo sapiens, UniProt P24468); assay: Luminescence-based cell-based high throughput dose response assay to identify inhibitors of COUP-TFII (NR2F2).; type: functional;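 also: HEK293 cells transiently cotransfected with COUP-TFII expression vector and reporter; luciferase reporter luminescence driven by COUP-TFII from the pX2-168 reporter plasmid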
T3 sequence (P24468 whole entry): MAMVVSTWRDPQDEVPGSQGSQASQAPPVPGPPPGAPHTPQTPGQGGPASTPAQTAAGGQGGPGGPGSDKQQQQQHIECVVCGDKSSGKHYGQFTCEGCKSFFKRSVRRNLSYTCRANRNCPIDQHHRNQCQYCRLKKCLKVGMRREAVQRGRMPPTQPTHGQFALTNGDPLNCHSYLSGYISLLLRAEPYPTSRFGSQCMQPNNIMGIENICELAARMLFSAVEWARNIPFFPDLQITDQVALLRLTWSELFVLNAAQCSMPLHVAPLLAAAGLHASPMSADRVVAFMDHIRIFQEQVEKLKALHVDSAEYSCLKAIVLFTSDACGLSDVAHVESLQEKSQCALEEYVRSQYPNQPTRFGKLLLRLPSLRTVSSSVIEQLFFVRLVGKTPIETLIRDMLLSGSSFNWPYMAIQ

BJ [20] = assay: BJ-TERT fibroblast viability loss – cell-based, RAS-independent, luminescence, dose response (AID 1933); type: functional; details: Homo sapiens
cells [21] = type: functional, cell-based
BJ [22] = assay: cells; type: functional, cell-based, Homo sapiens; details: Homo sapiens, BJ
cells [23] = type: functional, cell-based; remark: listed apart in the source
BJ [24] = assay: BJ-TERT-LT-ST fibroblast viability loss – cell-based, RAS-independent, luminescence, dose response (AID 1935); type: functional; details: Homo sapiens;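 also: BJ fibroblasts immortalized with TERT plus LT and ST oncogenes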
[25] = DRD fibroblast viability loss – cell-based, non-viral oncogenic, luminescence, dose response (AID 1934); type: functional; details: Homo sapiens
INS1 = assay: INS-1E survival protection against cytokine death – cell-based, luminescence, retest, dose response (AID 449756); type: functional; details: Rattus norvegicus;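 also: cell death triggered by IL-1 beta plus TNF-alpha plus IFN-gamma mixture; protective hits raise ATP signal compared with cytokine alone wells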
[26] = target: Eukaryotic translation initiation factor 4H (Homo sapiens, UniProt Q15056); assay: eIF4H binding inhibition – biochemical, uHTS, fluorescence polarization, translation initiation inhibitor project, primary screen (AID 2012)
[27] = target: Polyadenylate-binding protein 1 (Homo sapiens, UniProt P11940); assay: blockers of PABP interaction with poly(A) – biochemical, fluorescence polarization, […] (AID 2014)
[28] = target: Cyclin-dependent kinase 5/CDK5 activator 1 (Homo sapiens, UniProt Q00535); assay: blockade of human CDK5 activity – biochemical, cherry-picked samples, set 2, dose response (AID 504545)
[29] = target: Dual specificity tyrosine-phosphorylation-regulated kinase 1A (Rattus norvegicus, UniProt Q63470); type: biochemical, Homo sapiens
[30] = Luminescence-based cell-based high throughput dose response assay to identify activators of the DAF-12 from the parasite S. stercoralis (ssDAF-12).; type: functional
[31] = target: T4, Oxysterols receptor LXR-beta (Homo sapiens, UniProt P55055); assay: LXR agonists, Gal4 luciferase reporter, dose response, counter-screen for ssDAF-12 agonist project, cell-based, luminescence, HEK293, S. stercoralis campaign (AID 720737); type: functional; details: read-out: IC50 (the source's name)
T4 sequence (P55055 whole entry): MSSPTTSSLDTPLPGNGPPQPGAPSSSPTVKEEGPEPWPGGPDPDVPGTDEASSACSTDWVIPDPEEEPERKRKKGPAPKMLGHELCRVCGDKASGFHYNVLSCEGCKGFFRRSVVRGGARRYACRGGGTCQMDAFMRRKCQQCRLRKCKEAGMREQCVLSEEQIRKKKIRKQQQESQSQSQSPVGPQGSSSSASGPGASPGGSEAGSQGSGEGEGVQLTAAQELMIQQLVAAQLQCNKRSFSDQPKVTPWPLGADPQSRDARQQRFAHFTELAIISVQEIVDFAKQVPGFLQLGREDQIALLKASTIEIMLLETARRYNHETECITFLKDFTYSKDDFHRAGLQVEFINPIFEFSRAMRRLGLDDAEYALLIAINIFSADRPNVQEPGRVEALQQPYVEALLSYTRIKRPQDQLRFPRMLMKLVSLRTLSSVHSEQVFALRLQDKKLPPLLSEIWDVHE

[32] = target: G2/mitotic-specific cyclin-B1 (Homo sapiens, UniProt P14635); assay: Counterscreen assay for inhibitors of Wee1 degradation: dose response cell-based assay to identify inhibitors of cyclin B degradation. [Related pubchem assays: 1410, 1321 ]; type: functional
Wee1-like protein kinase = Wee1-like protein kinase (Homo sapiens, UniProt P30291); assay: Dose Response Cell-based Assay for Inhibitors of Wee1 Degradation. [Related pubchem assays: 1410, 1321 ]; type: functional
[33] = target: T5, Heat shock factor protein 1 (Mus musculus, UniProt P38532); assay: enhancement of HSF1-driven luciferase signal – cell-based, NIH3T3, luminescence, dose retest, confirmation (AID 435004); type: functional;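 also: stress induced by proteasome inhibitor MG132 added 30 min after compound; luciferase reporter driven by HSF1 response element in NIH3T3 cells; actives raise luminescence as potentiators of the MG132 stress response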
T5 sequence (P38532 whole entry): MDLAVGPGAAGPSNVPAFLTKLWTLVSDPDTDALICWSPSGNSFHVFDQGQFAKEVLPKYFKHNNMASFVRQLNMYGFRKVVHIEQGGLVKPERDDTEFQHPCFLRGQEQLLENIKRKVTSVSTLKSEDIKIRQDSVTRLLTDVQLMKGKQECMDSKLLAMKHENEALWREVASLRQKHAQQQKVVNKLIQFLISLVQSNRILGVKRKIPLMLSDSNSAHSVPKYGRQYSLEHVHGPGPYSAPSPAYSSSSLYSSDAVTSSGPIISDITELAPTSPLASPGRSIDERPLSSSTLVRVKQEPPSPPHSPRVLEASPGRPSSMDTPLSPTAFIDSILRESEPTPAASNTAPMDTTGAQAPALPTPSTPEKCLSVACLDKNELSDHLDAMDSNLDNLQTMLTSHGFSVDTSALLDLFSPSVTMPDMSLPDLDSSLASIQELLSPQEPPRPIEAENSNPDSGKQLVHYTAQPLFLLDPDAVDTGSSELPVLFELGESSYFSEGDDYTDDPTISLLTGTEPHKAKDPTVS

Chain of Serine/threonine-protein phosphatase (Q9BPW0 whole entry): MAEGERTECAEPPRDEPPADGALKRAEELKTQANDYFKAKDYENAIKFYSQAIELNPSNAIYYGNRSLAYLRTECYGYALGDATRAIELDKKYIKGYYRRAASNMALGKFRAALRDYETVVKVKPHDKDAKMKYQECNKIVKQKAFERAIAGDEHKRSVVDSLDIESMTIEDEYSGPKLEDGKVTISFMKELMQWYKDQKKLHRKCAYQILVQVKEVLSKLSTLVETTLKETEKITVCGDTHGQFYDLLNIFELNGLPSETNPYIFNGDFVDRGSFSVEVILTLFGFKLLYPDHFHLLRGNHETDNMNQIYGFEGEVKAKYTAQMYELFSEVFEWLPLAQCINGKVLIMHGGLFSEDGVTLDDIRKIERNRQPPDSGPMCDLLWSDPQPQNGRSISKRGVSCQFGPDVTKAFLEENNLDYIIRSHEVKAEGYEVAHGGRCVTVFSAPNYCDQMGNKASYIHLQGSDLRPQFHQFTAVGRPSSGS
Chain of Cyclin-dependent kinase 5/CDK5 activator 1 (Q00535 whole entry): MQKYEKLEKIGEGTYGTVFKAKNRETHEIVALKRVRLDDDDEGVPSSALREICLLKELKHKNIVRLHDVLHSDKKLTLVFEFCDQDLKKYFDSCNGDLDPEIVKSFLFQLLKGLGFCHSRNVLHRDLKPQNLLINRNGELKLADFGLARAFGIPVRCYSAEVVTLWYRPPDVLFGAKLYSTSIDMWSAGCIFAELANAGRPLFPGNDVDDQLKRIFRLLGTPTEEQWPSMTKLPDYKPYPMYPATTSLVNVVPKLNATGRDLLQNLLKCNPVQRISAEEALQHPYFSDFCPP
Chain of Cyclin-dependent kinase 5/CDK5 activator 1 (Q15078 whole entry, further chain): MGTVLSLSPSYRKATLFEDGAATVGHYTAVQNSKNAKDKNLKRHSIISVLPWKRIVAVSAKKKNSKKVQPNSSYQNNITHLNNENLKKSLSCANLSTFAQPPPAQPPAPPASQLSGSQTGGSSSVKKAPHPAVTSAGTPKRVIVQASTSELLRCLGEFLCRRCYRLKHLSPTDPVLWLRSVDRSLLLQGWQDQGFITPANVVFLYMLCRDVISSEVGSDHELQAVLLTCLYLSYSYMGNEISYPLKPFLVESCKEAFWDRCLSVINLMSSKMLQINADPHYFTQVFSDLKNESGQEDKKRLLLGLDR
Chain of Serine/threonine-protein phosphatase PP1-alpha catalytic subunit (P62136 whole entry): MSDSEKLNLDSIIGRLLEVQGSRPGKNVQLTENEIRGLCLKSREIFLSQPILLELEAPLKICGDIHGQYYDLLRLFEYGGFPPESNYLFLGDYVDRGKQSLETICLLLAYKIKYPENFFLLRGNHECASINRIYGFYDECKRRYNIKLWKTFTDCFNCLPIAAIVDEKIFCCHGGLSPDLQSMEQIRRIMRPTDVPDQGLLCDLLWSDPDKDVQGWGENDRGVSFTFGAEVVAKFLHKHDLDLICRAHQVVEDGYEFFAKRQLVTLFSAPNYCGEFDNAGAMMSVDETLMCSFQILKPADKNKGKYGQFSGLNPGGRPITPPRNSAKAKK
Chain of Glyceraldehyde-3-phosphate dehydrogenase (P04406 whole entry): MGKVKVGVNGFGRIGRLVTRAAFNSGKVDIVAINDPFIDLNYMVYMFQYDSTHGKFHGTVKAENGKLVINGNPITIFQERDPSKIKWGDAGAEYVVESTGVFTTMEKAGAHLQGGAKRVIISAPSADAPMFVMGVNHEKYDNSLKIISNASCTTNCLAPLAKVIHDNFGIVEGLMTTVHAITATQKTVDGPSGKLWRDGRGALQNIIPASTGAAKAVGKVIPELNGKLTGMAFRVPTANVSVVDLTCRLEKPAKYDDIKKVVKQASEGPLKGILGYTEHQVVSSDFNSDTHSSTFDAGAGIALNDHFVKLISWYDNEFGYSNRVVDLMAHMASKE
Chain of G2/mitotic-specific cyclin-B1 (P14635 whole entry): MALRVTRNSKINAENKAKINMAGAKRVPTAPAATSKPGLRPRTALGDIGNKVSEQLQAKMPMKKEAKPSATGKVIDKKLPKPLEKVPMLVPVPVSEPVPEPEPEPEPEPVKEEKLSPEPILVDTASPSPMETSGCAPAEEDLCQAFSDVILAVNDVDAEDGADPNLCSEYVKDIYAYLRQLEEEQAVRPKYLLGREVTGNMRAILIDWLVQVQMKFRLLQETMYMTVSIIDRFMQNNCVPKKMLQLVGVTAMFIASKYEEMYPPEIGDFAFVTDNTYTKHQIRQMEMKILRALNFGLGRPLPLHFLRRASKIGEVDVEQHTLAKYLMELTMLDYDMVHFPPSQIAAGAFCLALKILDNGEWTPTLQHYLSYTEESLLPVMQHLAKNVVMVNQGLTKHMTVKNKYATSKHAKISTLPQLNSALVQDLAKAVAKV
Chain of Photoreceptor-specific nuclear receptor (Q9Y5X4 whole entry): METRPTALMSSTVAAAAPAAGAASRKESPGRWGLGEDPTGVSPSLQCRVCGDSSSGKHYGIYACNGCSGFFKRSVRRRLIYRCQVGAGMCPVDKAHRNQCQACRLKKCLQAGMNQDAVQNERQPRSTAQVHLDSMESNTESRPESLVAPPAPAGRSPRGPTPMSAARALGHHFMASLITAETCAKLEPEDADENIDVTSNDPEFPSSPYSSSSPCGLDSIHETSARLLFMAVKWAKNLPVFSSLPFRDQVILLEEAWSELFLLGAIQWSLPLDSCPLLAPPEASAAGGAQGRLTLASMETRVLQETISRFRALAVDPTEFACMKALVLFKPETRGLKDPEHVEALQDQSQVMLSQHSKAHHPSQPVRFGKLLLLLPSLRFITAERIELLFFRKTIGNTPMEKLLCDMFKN
Chain of Sphingosine 1-phosphate receptor 2 (O95136 whole entry): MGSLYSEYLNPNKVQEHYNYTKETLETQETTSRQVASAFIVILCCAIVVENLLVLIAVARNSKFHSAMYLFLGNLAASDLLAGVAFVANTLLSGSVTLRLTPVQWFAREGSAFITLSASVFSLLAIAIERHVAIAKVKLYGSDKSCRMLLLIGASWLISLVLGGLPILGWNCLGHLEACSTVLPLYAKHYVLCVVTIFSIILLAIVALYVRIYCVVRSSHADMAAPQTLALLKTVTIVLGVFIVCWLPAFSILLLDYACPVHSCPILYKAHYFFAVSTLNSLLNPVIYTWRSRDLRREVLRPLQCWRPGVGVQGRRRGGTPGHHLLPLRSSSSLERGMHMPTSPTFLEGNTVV
Chain of Polyadenylate-binding protein 1 (P11940 whole entry): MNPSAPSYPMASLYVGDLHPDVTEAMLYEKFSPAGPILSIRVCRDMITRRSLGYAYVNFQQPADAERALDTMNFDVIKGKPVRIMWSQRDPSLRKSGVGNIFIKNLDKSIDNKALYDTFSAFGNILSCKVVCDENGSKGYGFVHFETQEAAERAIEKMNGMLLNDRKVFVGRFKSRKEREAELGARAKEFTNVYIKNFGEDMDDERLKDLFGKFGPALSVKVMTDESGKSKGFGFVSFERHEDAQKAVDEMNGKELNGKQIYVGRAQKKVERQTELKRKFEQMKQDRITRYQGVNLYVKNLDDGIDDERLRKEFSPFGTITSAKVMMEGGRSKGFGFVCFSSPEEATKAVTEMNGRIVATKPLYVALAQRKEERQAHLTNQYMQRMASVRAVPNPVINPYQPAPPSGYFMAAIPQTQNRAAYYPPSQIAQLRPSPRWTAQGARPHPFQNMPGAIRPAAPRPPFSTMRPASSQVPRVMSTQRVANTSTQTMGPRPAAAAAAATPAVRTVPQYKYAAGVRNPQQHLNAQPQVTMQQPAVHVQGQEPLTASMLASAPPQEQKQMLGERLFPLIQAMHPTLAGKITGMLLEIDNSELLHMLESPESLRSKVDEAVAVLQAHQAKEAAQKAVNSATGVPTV
Chain of Wee1-like protein kinase (P30291 whole entry): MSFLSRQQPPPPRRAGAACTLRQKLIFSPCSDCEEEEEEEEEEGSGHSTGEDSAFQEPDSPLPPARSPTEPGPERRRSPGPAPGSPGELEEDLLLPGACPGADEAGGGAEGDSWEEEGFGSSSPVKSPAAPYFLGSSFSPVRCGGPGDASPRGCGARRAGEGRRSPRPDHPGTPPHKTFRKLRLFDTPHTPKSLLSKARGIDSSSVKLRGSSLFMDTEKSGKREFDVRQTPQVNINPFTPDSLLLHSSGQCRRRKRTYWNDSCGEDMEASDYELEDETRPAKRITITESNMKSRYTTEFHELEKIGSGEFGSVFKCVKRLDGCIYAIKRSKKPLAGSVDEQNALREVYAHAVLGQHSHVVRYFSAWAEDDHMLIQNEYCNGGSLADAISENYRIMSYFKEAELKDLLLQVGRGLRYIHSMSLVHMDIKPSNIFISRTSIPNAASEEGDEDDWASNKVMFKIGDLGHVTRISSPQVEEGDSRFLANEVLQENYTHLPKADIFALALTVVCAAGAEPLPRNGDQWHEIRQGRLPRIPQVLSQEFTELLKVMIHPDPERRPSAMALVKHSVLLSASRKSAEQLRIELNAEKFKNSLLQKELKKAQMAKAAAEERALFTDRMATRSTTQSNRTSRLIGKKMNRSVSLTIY

N#Cc1ccc(Cl)cc1NC(=O)COC(=O)c1ccc2c(c1)OCCO2
IC50 [1]: > 39.8 µM (not active)
IC50 [2]: 2.78 µM (active)

CCN1CCN(C2=C(Cl)C(=O)N(c3ccc(C)cc3)C2=O)CC1
IC50 [3]: > 50 µM (inconclusive)

O=C(O)CSc1ccc2cc(O)ccc2c1
IC50 [3]: > 100 µM (not active)

O=C(NCCN1CCCCCC1)C1CCC(CNS(=O)(=O)c2cccc3cccnc23)CC1 (stereo not given)
IC50 (Bcl-2-like protein 10): > 100 µM (inactive)

CCOC(=O)c1cnc(-n2nc(C)cc2C)nc1NC1CCCCC1
IC50 [4]: 4.39 µM (active)
EC50 [5]: 1.82 µM (active)
IC50 [6]: 6.65 µM (active)
EC50 [7]: 1.2 µM (active)
IC50 [8]: > 67 µM (not active)
EC50 [9]: 12.8 µM (active)
EC50 (Streptococcus): 2.5 µM (active)
CC50 (Vero): 11.5 µM (active)
AC50 [10]: 3.01 µM (active)
AC50 [11]: 4.48 µM (active)
AC50 [12]: 3.29 µM (active)
AC50 [13]: 35.5 µM (active)
IC50 (Galanin receptor type 3): > 29.9 µM (inactive)
EC50 (cells [14]): 14.5 µM (inactive)
AC50 [15]: 18.1 µM (active)
AC50 [16]: 21.3 µM (active)
AC50 [17]: 27.1 µM (active)
AC50 [18]: 33.4 µM (active)
IC50 [19]: 7.02 µM (active)

Cc1ccc(Nc2c(-c3ccccn3)nc3cccc(C)n23)cc1
EC50 [5]: 0.77 µM (active)
EC50 (BJ [20]): 6.81 µM (active)
EC50 (cells [21]): 12.7 µM (active)
IC50 [6]: 8.52 µM (active)
EC50 (BJ [22]): 14.3 µM (active)
EC50 [7]: 0.488 µM (active)
EC50 (cells [23]): > 350 µM (not active)
IC50 [8]: 45.1 µM (not active)
EC50 [9]: < 6 µM (inconclusive)
EC50 (BJ [24]): 8.61 µM (inconclusive)
EC50 [25]: 13.5 µM (active)
EC50 (Streptococcus): 1.35 µM (active)
AC50 (INS1): 2.77 µM (active)
AC50 [10]: 1.9 µM (active)
AC50 [11]: 25.6 µM (active)
AC50 [12]: 0.907 µM (active)

c1cc[n+](CCC[n+]2ccccc2)cc1
IC50 [26]: 96.5 µM (active)
IC50 [27]: 3.68 µM (active)

O=C(O)c1ccc(/C=N/Nc2ccc(C(F)(F)F)cn2)cc1
AC50 [28]: 5.54 µM (active)
AC50 [29]: 7.95 µM (active)
IC50 [30]: > 67.6 µM (inactive)
EC50 [31]: > 67.6 µM (inactive)

Nc1ccc(-c2cnc(N)c(C(=O)c3cccnc3)n2)cn1
AC50 [28]: 36.7 µM (active)

CCOC(=O)N1CCN(C(=O)c2cc(-c3ccc(OCC)cc3)nc3ccccc23)CC1
EC50 [32]: > 49.7 µM (not active)
EC50 (Wee1-like protein kinase): > 49.7 µM (not active)
EC50 [33]: 14.5 µM (active)
